Like-named read-outs stand apart in the source and are kept apart here.

For experiment [1], the target named is T1, human TET2 (Homo sapiens, UniProt Q6N021). As to conditions: for IC50 / inhibition of TET2 activity (in words): MALDI assay; for IC50: resynthesized/synthesized compounds, highest concentration 200 µM; for inhibition of TET2: additional experiments, data not shown, assay format not stated; for inhibition of TET2 activity (in words): synthesized compounds.

For experiment [2], the target named is T1, human TET2. To be noted: FRET assay dose response; three independent experiments with technical duplicates.
Method: Use of a DNA duplex terminally labelled with a FRET donor/acceptor dye pair (Cy3/Cy5) thereby enables measuring the amount of caC product generated from an mC duplex by TET (Fig. 1A). […] We identified an universal buffer system (50 mM potassium acetate, 20 mM Tris-acetate, 10 mM magnesium acetate, 100 μg ml^−1 BSA, pH 7.9) that was compatible with the activity of both TET2 and MspI, and thus was applicable to one pot reactions without intermediate purification steps. We incubated 0.5 μM of the DNA duplex with TET2 at different concentrations under aerobic conditions and in the presence of essential assay components, i.e. α-KG, ascorbate, dithiothreitol (DTT), and Fe(II) at 37 °C and pH 8 for 1 hour. We then added 20 U MspI enzyme to determine the caC level generated by TET2-mediated oxidation.
For screening, we premixed the annealed oligonucleotides with TET2 and all other essential components except Fe(II) in 1536-well plates, followed by the acoustic transfer of test compounds into each well at a final concentration of 50 μM. […] In order to distinguish the false-positive hits, we normalized the final Cy5 fluorescence of each well to its respective initial value immediately after MspI addition. […]
fluorescence signals were recorded on an Infinite® M1000 (Tecan). […]
The test system of a further experiment is TET1. Further details: method as in PMID 35586434. As to conditions: cited from earlier work.
A further experiment relates to TET2. Further details: method as in PMID 35586434. As to conditions: cited from earlier work.

Consider `O=S(=O)(NCc1ccccc1)c1ccc(F)c2ncc(I)cc12` [compound 13], for which the IC50 against human TET2 [1] is greater than 200 µM.

As to `O=S(=O)(Nc1ccccc1)c1ccc(F)c2ncc(I)cc12` [compound 11], on human TET2 [1], it took 23.9 ± 4.1 µM to reach half-maximal inhibition (IC50).

Turning to `CCCCCOS(=O)(=O)c1ccc(F)c2ncc(I)cc12` [compound 6], the IC50 on human TET2 [1] is greater than 200 µM.

As to `CC(=O)N(O)CCCCCNC(=O)CCC(=O)N(O)CCCCCNC(=O)CCC(=O)N(O)CCCCCN` [DFOA, deferoxamine], it took 46 µM to reach half-maximal inhibition against human TET2 [2] (IC50).

On to `CC(C)OS(=O)(=O)c1ccc(F)c2ncc(I)cc12` [compound 5], for which the IC50 on human TET2 [1] is greater than 200 µM.

In the case of `Nc1ccccc1S(=O)(=O)O` [o-anilinesulfonic acid, reference compound], the “inhibition of TET2” value against human TET2 [1] is “no inhibition”.

In turn, `O=S(=O)(NCCc1ccccc1)c1ccc(F)c2ncc(I)cc12` [compound 14] showed a 50% inhibitory concentration (IC50) on human TET2 [1] greater than 200 µM.

Take `O=S(=O)(Nc1cccc(O)c1)c1ccc(F)c2ncc(I)cc12` [compound 16]: on human TET2 [1], the IC50 was greater than 200 µM.

Consider `CNS(=O)(=O)c1ccc(F)c2ncc(I)cc12` [compound 9], for which, at human TET2 [1], the “inhibition of TET2 activity (in words)” value was “inactive” and the IC50 is greater than 200 µM.

Consider `NS(=O)(=O)c1ccc(F)c2ncc(I)cc12` [compound 8], for which it took 86.6 ± 5.6 µM to reach half-maximal inhibition against human TET2 [1] (IC50).

In the case of `O=S(=O)(c1ccc(F)c2ncc(I)cc12)N1CCCC1` [compound 10], on human TET2 [1], the “inhibition of TET2 activity (in words)” value was “inactive” and the half-maximal inhibitory concentration (IC50) is greater than 200 µM.

Consider `O=C(O)c1ccnc(Br)c1` [2-bromoisonicotinic acid, reference compound], for which the “inhibition of TET2” value against human TET2 [1] is listed as “no inhibition”.

Take `Nc1nc(=O)n(-c2cccc(-c3ccccc3)c2)cc1Cl` [Bobcat339]: the “inhibition of TET1” value with TET1 is given as “not be an inhibitor”. Besides, in the experiment on TET2, the “inhibition of TET2” value was “not be an inhibitor”.

For the compound `Cc1ccc(S(=O)(=O)O)cc1` [p-toluenesulfonic acid, reference compound], the “inhibition of TET2” value on human TET2 [1] is “no inhibition”.

Broadly, the IC50 is the midpoint of a concentration-inhibition curve. A high value points to weaker potency in that assay.

The record behind these values is paper PMC9749932, “A high-throughput effector screen identifies a novel small molecule scaffold for inhibition of ten-eleven translocation dioxygenase 2” (RSC Medicinal Chemistry, 2022).
